Values of other authors, collected in patent publication US20100189788A1 (Teva Pharmaceutical Industries, Ltd., priority 2009, published 2010).

Details: such as hexane toluene and ethylacetate; in words

solubility in non-polar organic solvents: very soluble
Structure (SMILES): C#CCN[C@@H]1CCc2ccccc21 [rasagiline, R(+)-N-propargyl-1-aminoindan]
